Reference: the NIST ThermoML archive (doi:10.1016/j.jct.2019.01.028)
± gives the expanded uncertainty stated by the source.

Tests used:
[1] = xn = mol fraction of the nth substance listed; conditions: transient hot wire
[2] = transient hot wire

CC(F)(F)F [1,1,1-trifluoroethane] + C=C(F)C(F)(F)F
[1], x1 = 0.5
Conditions | thermal conductivity [W/m/K]
265.44 K, 1220 kPa, Liquid | 0.0777 ± 0.0016
284.11 K, 2050 kPa, Liquid | 0.0715 ± 0.0014
285.09 K, 1060 kPa, Liquid | 0.0696 ± 0.0014
307.25 K, 2030 kPa, Liquid | 0.0625 ± 0.0013
307.34 K, 3050 kPa, Liquid | 0.0644 ± 0.0013
324.39 K, 3040 kPa, Liquid | 0.0585 ± 0.0012
334.34 K, 1080 kPa, Gas | 0.01836 ± 0.00039
354.13 K, 1170 kPa, Gas | 0.02059 ± 0.00043
354.52 K, 1730 kPa, Gas | 0.02034 ± 0.00042
373.86 K, 2750 kPa, Gas | 0.02379 ± 0.00049
374.86 K, 1900 kPa, Gas | 0.02277 ± 0.00047
393.8 K, 3090 kPa, Gas | 0.02622 ± 0.00053

[Ar] [argon]
[2], Gas
Conditions | thermal conductivity [W/m/K]
311.92 K, 20370 kPa | 0.02811 ± 0.0005
312.12 K, 24160 kPa | 0.03024 ± 0.00054
312.12 K, 31080 kPa | 0.0342 ± 0.00061
312.18 K, 27390 kPa | 0.03235 ± 0.00058
312.2 K, 25850 kPa | 0.03134 ± 0.00056
312.35 K, 27380 kPa | 0.0324 ± 0.00058
312.59 K, 17170 kPa | 0.02649 ± 0.00047
312.61 K, 13790 kPa | 0.02465 ± 0.00043
312.73 K, 10320 kPa | 0.02285 ± 0.0004

FC(F)C(F)(F)F [pentafluoroethane] + C=C(F)C(F)(F)F
[1], x1 = 0.5
Conditions | thermal conductivity [W/m/K]
259.84 K, 1110 kPa, Liquid | 0.0717 ± 0.0014
284.9 K, 1150 kPa, Liquid | 0.0674 ± 0.0013
285.15 K, 1880 kPa, Liquid | 0.0686 ± 0.0014
304.07 K, 2060 kPa, Liquid | 0.0644 ± 0.0014
305.21 K, 3030 kPa, Liquid | 0.0595 ± 0.0013
324.75 K, 3030 kPa, Liquid | 0.0529 ± 0.0012
334.55 K, 1340 kPa, Gas | 0.01759 ± 0.00039
354.3 K, 1450 kPa, Gas | 0.01925 ± 0.00042
354.63 K, 1840 kPa, Gas | 0.02057 ± 0.00045
374.24 K, 2810 kPa, Gas | 0.02329 ± 0.00048
374.46 K, 2040 kPa, Gas | 0.02202 ± 0.00046
394.23 K, 3100 kPa, Gas | 0.02512 ± 0.00052

FC(F)C(F)(F)F [pentafluoroethane] + CC(F)F
[1], x1 = 0.5
Conditions | thermal conductivity [W/m/K]
264.9 K, 1000 kPa, Liquid | 0.0845 ± 0.0017
273.97 K, 2140 kPa, Liquid | 0.0856 ± 0.0018
284.7 K, 1000 kPa, Liquid | 0.0799 ± 0.0016
294.68 K, 3030 kPa, Liquid | 0.0789 ± 0.0016
294.83 K, 2010 kPa, Liquid | 0.0774 ± 0.0015
314.1 K, 3080 kPa, Liquid | 0.0646 ± 0.0013
335.9 K, 1110 kPa, Gas | 0.0178 ± 0.00038
353.81 K, 1710 kPa, Gas | 0.01953 ± 0.0004
353.92 K, 1220 kPa, Gas | 0.01934 ± 0.0004
374.25 K, 1920 kPa, Gas | 0.0231 ± 0.00047
374.33 K, 2760 kPa, Gas | 0.0237 ± 0.00049
393.94 K, 3110 kPa, Gas | 0.02557 ± 0.00052

Cc1ccccc1 [toluene]
[2], 100 kPa, Liquid
Conditions | thermal conductivity [W/m/K]
272.64 K | 0.1372 ± 0.0015
273.45 K | 0.1366 ± 0.0015
295.01 K | 0.1308 ± 0.0014
295.07 K | 0.1307 ± 0.0014
316.82 K | 0.1253 ± 0.0014
318.84 K | 0.1243 ± 0.0013
321.21 K | 0.1237 ± 0.0013
335.27 K | 0.12 ± 0.0013
337.36 K | 0.1192 ± 0.0013
347 K | 0.1175 ± 0.0013

F/C=C/C(F)(F)F [trans-1,3,3,3-tetrafluoropropene] + C=C(F)C(F)(F)F
[1], x1 = 0.5
Conditions | thermal conductivity [W/m/K]
274.82 K, 1240 kPa, Liquid | 0.0766 ± 0.0025
294.69 K, 1080 kPa, Liquid | 0.0689 ± 0.0014
303.67 K, 2050 kPa, Liquid | 0.0679 ± 0.0015
303.96 K, 2960 kPa, Liquid | 0.0715 ± 0.0015
323.14 K, 2920 kPa, Liquid | 0.0633 ± 0.0013
324.62 K, 2070 kPa, Liquid | 0.0622 ± 0.0012
355.01 K, 940 kPa, Gas | 0.01929 ± 0.0004
375.04 K, 1740 kPa, Gas | 0.02197 ± 0.00045
375.09 K, 1010 kPa, Gas | 0.02168 ± 0.00045
393.98 K, 1860 kPa, Gas | 0.02321 ± 0.00048
394.38 K, 2520 kPa, Gas | 0.0246 ± 0.00051
414.22 K, 2920 kPa, Gas | 0.02633 ± 0.00053

F/C=C/C(F)(F)F [trans-1,3,3,3-tetrafluoropropene] + CC(F)(F)F
[1], x2 = 0.5
Conditions | thermal conductivity [W/m/K]
264.94 K, 910 kPa, Liquid | 0.0772 ± 0.0015
285.99 K, 2120 kPa, Liquid | 0.0752 ± 0.0015
286.02 K, 1020 kPa, Liquid | 0.0742 ± 0.0015
304.35 K, 2020 kPa, Liquid | 0.069 ± 0.0014
304.36 K, 3040 kPa, Liquid | 0.0685 ± 0.0014
324.01 K, 2890 kPa, Liquid | 0.0624 ± 0.0012
345.02 K, 950 kPa, Gas | 0.01913 ± 0.0004
364.82 K, 1040 kPa, Gas | 0.02103 ± 0.00044
364.82 K, 1730 kPa, Gas | 0.02117 ± 0.00044
384.54 K, 1920 kPa, Gas | 0.02317 ± 0.00047
384.6 K, 2540 kPa, Gas | 0.02357 ± 0.00048
404.05 K, 2960 kPa, Gas | 0.02606 ± 0.00053

F/C=C/C(F)(F)F [trans-1,3,3,3-tetrafluoropropene] + FC(F)C(F)(F)F
[1], x2 = 0.5
Conditions | thermal conductivity [W/m/K]
262.72 K, 1000 kPa, Liquid | 0.0781 ± 0.0016
285.7 K, 1080 kPa, Liquid | 0.0737 ± 0.0015
285.77 K, 2060 kPa, Liquid | 0.0738 ± 0.0015
304.23 K, 1940 kPa, Liquid | 0.0636 ± 0.0014
304.8 K, 3080 kPa, Liquid | 0.0688 ± 0.0015
324.33 K, 3020 kPa, Liquid | 0.0618 ± 0.0013
333.94 K, 1120 kPa, Gas | 0.01783 ± 0.00038
353.67 K, 1810 kPa, Gas | 0.01927 ± 0.0004
353.84 K, 1230 kPa, Gas | 0.01927 ± 0.0004
373.56 K, 2020 kPa, Gas | 0.02145 ± 0.00046
373.67 K, 3040 kPa, Gas | 0.02479 ± 0.00052
395.41 K, 3040 kPa, Gas | 0.02441 ± 0.00052

F/C=C/C(F)(F)F [trans-1,3,3,3-tetrafluoropropene] + FCC(F)(F)F
[1], x2 = 0.5
Conditions | thermal conductivity [W/m/K]
274.68 K, 980 kPa, Liquid | 0.0884 ± 0.0018
305.14 K, 3140 kPa, Liquid | 0.0754 ± 0.0015
305.18 K, 1040 kPa, Liquid | 0.0739 ± 0.0015
305.22 K, 2040 kPa, Liquid | 0.0736 ± 0.0015
324.82 K, 2960 kPa, Liquid | 0.0627 ± 0.0013
326.02 K, 2030 kPa, Liquid | 0.0621 ± 0.0012
344.05 K, 870 kPa, Gas | 0.01922 ± 0.0004
364.05 K, 990 kPa, Gas | 0.02123 ± 0.00044
364.13 K, 2030 kPa, Gas | 0.02192 ± 0.00045
383.85 K, 2230 kPa, Gas | 0.02365 ± 0.00049
384.09 K, 3030 kPa, Gas | 0.02611 ± 0.00054
403.87 K, 3020 kPa, Gas | 0.02684 ± 0.00055

O [water]
[2], 100 kPa, Liquid
Conditions | thermal conductivity [W/m/K]
292.8 K | 0.6012 ± 0.0063
295.01 K | 0.605 ± 0.0063
303.13 K | 0.6184 ± 0.0065
303.93 K | 0.6193 ± 0.0065
305.47 K | 0.622 ± 0.0065
314.01 K | 0.6259 ± 0.0066
314.95 K | 0.6275 ± 0.0066
334.75 K | 0.6479 ± 0.0068
336.26 K | 0.6496 ± 0.0068
